According to patent publication US10829466B2, “Stilbene derivative and preparation method thereof” (BEIJING INSTITUTE OF TECHNOLOGY, priority 2015, dated 2020):
Entries after “also recorded” stand apart in the source; their conditions may differ.

How the values were obtained:
[1] = system: neurogenesis in rat hippocampus; assay: Detection of neurogenesis in rat hippocampus by BrdU labeling (DAB immunohistochemistry); assay type: in vivo; settings: for BrdU labeling result: SD male rats, intraperitoneal injection 28 days, 4 mg/Kg, compared with the control group; for neurogenesis activity (in words): under the test conditions of the embodiments, same dose; for activity of proliferation promotion (BrdU positive) at low dose: low dose 0.5 mg/Kg, compared with blank sample (V), FIG. 10
Text: Example 36: Detection of Neurogenesis in Rat Hippocampus by BrdU (5-Bromo-2-deoxy Uridine, 5-bromodeoxyuridine) Labeling
Experimental animals: 10-week-old SD male rats having a body weight of about 300 g are purchased. The rats are used in experiments one week after being adapted to the environment in an animal room. Experimental groups: control group, drug group. 2-3 rats per group. Experimental reagent: injection oil is used to dissolve a compound to be tested. Rates in the control group are injected with the same dose of dissolving oil.
Test method: intraperitoneal injection is carried out 28 days at the injection dose of 0.5 ml-1 ml each time. Dose: 4 mg/Kg.
1) marker injection: BrdU (dissolved in sterile saline solution at a concentration of 10 mg/mL) solution is injected intraperitoneally into rats. (For rats with different body weights, the injection dose of BrdU is 50 mg·Kg^−1, injection is carried out twice every 2 hour; the intraperitoneal injection 24 hours before anesthesia ends.
2) Anesthesia: Anesthesia is performed by intraperitoneal injection of sodium pentobarbital solution into rats. (For rats with different body weights, the injection dose of sodium pentobarbital is usually 70 mg·Kg^−1.)
3) Cardiac perfusion: cardiac perfusion with normal saline is performed according to a general method.
4) Taking of brain tissues: The heads of the rats are separated from the bodies with surgical forceps and scissors, and then the muscles and membrane tissues at the top of the skulls are removed and brains are then gently peeled from the skulls. The separated brains are soaked in 4% paraformaldehyde for 24-48 hours.
5) Dehydration of brain tissues: the fixed tissues are soaked with a 20% sucrose PBS solution for more than 72 hours, and then the brain tissues are soaked with a 30% sucrose PBS solution for more than 72 hours.
6) Frozen section: the brain tissues are cut into […] thick sections by a general coronal section procedure.
7) DAB immunohistochemistry step: DNA denaturation is carried out and the sections are transferred to a 24-well plate (pH 7.4) perfused with 0.1 M PBS. The brain sections are incubated with 1% H2O2 for 30 minutes to remove […]; the sections are then treated with a 2M HCl solution for 30 minutes at room temperature to denature them. After completion of the denaturation, the brain sections are immersed in a 0.1 M sodium borate (pH 8.5) solution for 5 minutes and rinsed twice; the brain sections are incubated in 0.5% PBST for 1 hour at room temperature, and then are blocked for 1 hour with a serum blocking solution on a shaker at room temperature, and the serum blocking solution is from the same source as a secondary antibody; the samples are treated on the shaker with a BrdU primary antibody overnight at 4° C., and the BrdU primary antibody is diluted with the blocking solution; the samples are incubated with the biotinylated secondary antibody IgG for 2 hours at room temperature; a C (ABC kit) solution is incubated at room temperature for 2 hours; finally, after 3 to 5 minutes of color development by the DAB kit, the samples are mounted by using a PVP mounting medium and then dried, and finally the experimental results are detected under a microscope.
The dose-effect relationships of different compounds is further tested according to the method of Example 36, and the compounds include WS-54 (E-4-isobutyrylamino-3′,4′-methylenedioxy-stilbene), WS-69 (E-4-Methylsulfonamino-3′,4′-methylenedioxy-stilbene), WS-70 (E-4-Benzamino-3′,4′-methylenedioxy-stilbene), and WS-74 (E-4-Cyclopropylformamino-3′,4′-methylenedioxy-stilbene).

HEK293 = assay: In vitro cytotoxicity experiment (MTT, cell survival); assay type: cell-based; settings: for neuronal cytotoxicity / neurotoxicity (in words): HEK293, in vitro test, FIG. 3; for cell survival rates: HEK293, 24 h, MTT, at all three doses, low, medium and high (100 μM; 500 μM; 1000 μM)
Experimental: Example 35: In Vitro Cytotoxicity Experiment the Experimental Cell Line is HEK293
Cells are cultured in a 96-well plate at a cell concentration of 5000/well. After 24 hours of cell culture, the drug treatment is performed and the experiment is carried out on two groups: the control group is added with DMSO with the same concentration as that for the experimental group; in the experimental group, each compound is tested at three doses of low, medium and high doses (100 μM; 500 μM; 1000 μM), and five parallels are tested at each dose; in the blank group, a complete medium is added with a compound to be tested with the same concentration as that for the experimental group. Constant temperature incubation is carried out for 24 h in a CO2 incubator, MTT with a final concentration of 0.5 mg/mL is then added; 4 hours later, 200 μL of DMSO solution is added, and the absorbance is measured at 490 nm. The cell survival is calculated according to the absorbance; Survival %=(Average concentration−Blank concentration)/(Average control concentration−Blank concentration)*100%.
Reference is made to FIG. 3 which illustrates an in vitro cytotoxicity test chart of a novel stilbene derivative according to an example of embodiments of the present invention.

O=C(Cc1ccccc1)Nc1ccc(/C=C/c2ccc3c(c2)OCO3)cc1 [LSS-16, E-4-phenylacetylamino-3′,4′-methylenedioxy-stilbene]
BrdU labeling result [1]: positive

CC(=O)Nc1ccc(C#Cc2ccc3c(c2)OCO3)cc1 [WS-77, E-4′-acetamino-3,4-methylenedioxy-diphenylacetylene, reference compound]
BrdU labeling result [1]: positive | neurogenesis activity (in words) [1]: weak neurogenesis activity

O=C(Nc1ccc(/C=C/c2ccc3c(c2)OCO3)cc1)c1cccs1 [WS-73, E-4-(2-thienyl)formamino-3′,4′-methylenedioxy-stilbene]
BrdU labeling result [1]: positive | neuronal cytotoxicity / neurotoxicity (in words) (HEK293): low neurotoxicity

E-4′-tertamino-3,4-methylenedioxy-stilbene [WS-60, reference compound]
neurogenesis activity (in words) [1]: weak neurogenesis activity

Nc1ccc(/C=C/c2ccc3c(c2)OCO3)cc1 [WS-4, E-4-amino-3′,4′-methylenedioxy-stilbene, reference compound]
cell survival rates (HEK293): less than 50% | neuronal cytotoxicity / neurotoxicity (in words) (HEK293): high neuronal cytotoxicity

CC(=O)Oc1ccc(/C=C/c2ccc3c(c2)OCO3)cc1 [WS-10, E-4′-acetoxy-3,4-methylenedioxy-stilbene, reference compound]
neurogenesis activity (in words) [1]: no neurogenesis activity

O=S(=O)(Nc1ccc(/C=C/c2ccc3c(c2)OCO3)cc1)c1ccccc1 [LSS-12, E-4-benzenesulfonylamino-3′,4′-methylenedioxy-stilbene]
BrdU labeling result [1]: positive

O=C(Nc1ccc(/C=C/c2ccc3c(c2)OCO3)cc1)c1ccccc1 [WS-70, E-4-benzoylamino-3′,4′-methylenedioxy-stilbene]
BrdU labeling result [1]: positive | activity of proliferation promotion (BrdU positive) at low dose [1]: significant activities of proliferation promotion | neuronal cytotoxicity / neurotoxicity (in words) (HEK293): low neurotoxicity; also recorded: greatly reduced

CS(=O)(=O)Nc1ccc(/C=C/c2ccc3c(c2)OCO3)cc1 [WS-69, E-4-methanesulfonylamino-3′,4′-methylenedioxy-stilbene]
BrdU labeling result [1]: positive | activity of proliferation promotion (BrdU positive) at low dose [1]: significant activities of proliferation promotion | neuronal cytotoxicity / neurotoxicity (in words) (HEK293): low neurotoxicity

COc1ccc(/C=C/c2ccc(NC(C)=O)cc2)cc1OC [WS-43, E-4′-acetylamino-3,4-dimethoxy-stilbene, reference compound]
neurogenesis activity (in words) [1]: no significant neurogenesis activity

CC(=O)Nc1ccc(/C=C/C(=O)c2ccc3c(c2)OCO3)cc1 [WS-37, 4-acetylamino-3′,4′-methylenedioxychalcone, reference compound]
cell survival rates (HEK293): less than 10% | neuronal cytotoxicity / neurotoxicity (in words) (HEK293): higher neuronal cytotoxicity

E-4′-acetamino-3,4-methylenedioxy-diphenylethane [WS-35, reference compound]
neurogenesis activity (in words) [1]: no neurogenesis activity

O=C(Nc1ccc(/C=C/c2ccc3c(c2)OCO3)cc1)C1CC1 [WS-74, E-4-cyclopropylcarboxamino-3′,4′-methylenedioxy-stilbene]
BrdU labeling result [1]: positive | activity of proliferation promotion (BrdU positive) at low dose [1]: significant activities of proliferation promotion | neuronal cytotoxicity / neurotoxicity (in words) (HEK293): low neurotoxicity; also recorded: greatly reduced

Oc1ccc(/C=C/c2ccc3c(c2)OCO3)cc1 [WS-11, E-4′-hydroxy-3,4-methylenedioxy-stilbene, reference compound]
neurogenesis activity (in words) [1]: no neurogenesis activity

COc1cc(/C=C/c2ccc(NC(C)=O)cc2)cc(OC)c1 [WS-61, E-4-acetylamino-3′,5′-dimethoxy-stilbene, reference compound]
neuronal cytotoxicity / neurotoxicity (in words) (HEK293): reduce neurotoxicity

COc1cc(/C=C/c2ccc(OC(C)=O)cc2)cc(OC)c1 [WS-56, E-4-acetoxy-3′,5′-dimethoxy-stilbene, reference compound]
activity of proliferation promotion (BrdU positive) at low dose [1]: no significant activity

CC(=O)Nc1ccc(/C=C/c2ccc3c(c2)OCO3)cc1F [WS-71, E-3,4-methylenedioxy-3′-fluoro-4′-acetylamino-stilbene]
BrdU labeling result [1]: positive | neuronal cytotoxicity / neurotoxicity (in words) (HEK293): low neurotoxicity

O=S(=O)(Nc1ccc(/C=C/c2ccc3c(c2)OCO3)cc1)C1CC1 [LSS-13, E-4-cyclopropylsulfonylamino-3′,4′-methylenedioxy-stilbene]
BrdU labeling result [1]: positive

O=C(Nc1ccc(/C=C/c2ccc3c(c2)OCO3)cc1)C1CCC1 [WS-83, E-4-cyclobutylformamino-3′,4′-methylenedioxy-stilbene]
BrdU labeling result [1]: positive

CN(C)S(=O)(=O)Nc1ccc(/C=C/c2ccc3c(c2)OCO3)cc1 [LSS-17, E-4-(N,N-dimethylamino-sulfonamino)-3′,4′-methylenedioxy-stilbene]
BrdU labeling result [1]: positive

CC(C)C(=O)Nc1ccc(/C=C/c2ccc3c(c2)OCO3)cc1 [WS-54, E-4-isobutyrylamino-3′,4′-methylenedioxy-stilbene]
BrdU labeling result [1]: positive | activity of proliferation promotion (BrdU positive) at low dose [1]: significant activities of proliferation promotion | neuronal cytotoxicity / neurotoxicity (in words) (HEK293): low neurotoxicity

CC(=O)Nc1cccc(/C=C/c2ccc3c(c2)OCO3)c1 [WS-49, E-3-acetylamino-3′,4′-methylenedioxy-stilbene, reference compound]
cell survival rates (HEK293): ≤ 20% | neuronal cytotoxicity / neurotoxicity (in words) (HEK293): higher neuronal cytotoxicity

CC(=O)N(C)c1ccc(/C=C/c2ccc3c(c2)OCO3)cc1 [WS-80, E-4′-(N-acetyl-N-methylamino)-3,4-methylenedioxy-stilbene, reference compound]
BrdU labeling result [1]: negative | neurogenesis activity (in words) [1]: no significant neurogenesis activity

O=C(Nc1ccc(/C=C/c2ccc3c(c2)OCO3)cc1)c1ccccn1 [LSS-20, E-4-(2-pyridinecarboxamino)-3′,4′-methylenedioxy-stilbene]
BrdU labeling result [1]: positive
